Values after ≈ are worked out from the molar mass of the structure shown. Blank lines part the entries; values can stand above or below the compound they belong to.
What was measured:
Homo sapiens = species on record: Homo sapiens; assay: Anticoagulant activity in human plasma assessed as activated partial thromboplastin time at 1000 ug/ml incubated for 4 mins; type: functional; conditions: dose 1000 µg/ml
[1] = Antioxidant activity assessed as DPPH radical scavenging activity at 12 ug incubated for 30 mins by spectrophotometric analysis; type: functional; conditions: dose 12.0 µg
HCT-116 = assay: Anticancer activity against human HCT-116 cells assessed as reduction in cell viability incubated for 96 hrs by MTT assay; type: functional, cell-based; conditions: HCT-116, 96 h
MCF7 = assay: cells; type: functional, cell-based; conditions: Homo sapiens, MCF7, 96 h
Penicillium chrysogenum = assay: Antifungal activity against Penicillium chrysogenum assessed as diameter of inhibition zone by disc diffusion method; type: functional
Aspergillus ochraceus = assay: Antifungal activity against Aspergillus ochraceus assessed as diameter of inhibition zone by disc diffusion method; type: functional
Staphylococcus aureus [2] = assay: Antibacterial activity against Staphylococcus aureus assessed as bacterial growth inhibition by broth microdilution method; type: functional
Escherichia coli = assay: Antibacterial activity against Escherichia coli assessed as bacterial growth inhibition by broth microdilution method; type: functional
Klebsiella pneumoniae = assay: Antibacterial activity against Klebsiella pneumoniae assessed as bacterial growth inhibition by broth microdilution method; type: functional
Pseudomonas aeruginosa = assay: Antibacterial activity against Pseudomonas aeruginosa assessed as bacterial growth inhibition by broth microdilution method; type: functional
Staphylococcus aureus [3] = assay: Antibacterial activity against Staphylococcus aureus NCIM 2654 assessed as diameter of inhibition zone incubated for 24 hrs by agar well diffusion method; type: functional
Albumin = Albumin (Bos taurus, UniProt P02769); assay: […] bovine serum albumin denaturation incubated for 23 mins by UV-Visible spectrophotometry
Chain of Albumin (P02769 whole entry): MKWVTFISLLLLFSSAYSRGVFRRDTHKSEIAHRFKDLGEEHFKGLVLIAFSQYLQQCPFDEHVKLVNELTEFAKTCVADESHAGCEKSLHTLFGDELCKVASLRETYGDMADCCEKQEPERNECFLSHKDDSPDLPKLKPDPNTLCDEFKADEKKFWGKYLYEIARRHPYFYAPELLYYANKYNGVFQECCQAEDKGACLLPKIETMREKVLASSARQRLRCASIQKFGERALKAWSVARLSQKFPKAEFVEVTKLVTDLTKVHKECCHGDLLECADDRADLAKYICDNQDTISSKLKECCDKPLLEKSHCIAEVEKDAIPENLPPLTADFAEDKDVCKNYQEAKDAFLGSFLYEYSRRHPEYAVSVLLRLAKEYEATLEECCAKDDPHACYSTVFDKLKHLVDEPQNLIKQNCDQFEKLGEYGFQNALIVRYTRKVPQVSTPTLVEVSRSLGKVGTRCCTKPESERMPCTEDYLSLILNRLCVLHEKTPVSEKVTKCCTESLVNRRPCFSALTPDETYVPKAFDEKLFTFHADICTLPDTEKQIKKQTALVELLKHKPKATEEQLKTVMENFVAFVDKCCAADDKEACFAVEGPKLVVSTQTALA

Alpha-glucosidase = Alpha-glucosidase (Saccharomyces cerevisiae S288c, UniProt P53341+P38158+P07265); assay: Inhibition of Saccharomyces cerevisiae alpha-glucosidase preincubated for 5 mins followed by PNP-GLUC substrate addition and measured after 20 mins by spectroscopic analysis; type: protein assay
[4] = Inhibition of porcine pancreatic alpha-amylase preincubated for 10 mins followed by substrate starch addition and measured after 10 mins by colorimetric analysis; design: species or system Sus scrofa

SMILES: COc1ccc2c(-c3nc4c5c(ncn4n3)OC3=C(C(=O)CC(C)(C)C3)C5c3ccccc3)cc(=O)oc2c1 (centres undefined)
Time (Homo sapiens): 55.1 s

SMILES: Cc1n[nH]c2c1C(c1cc([N+](=O)[O-])ccc1O)c1c([nH]c(=O)[nH]c1=O)O2 (centres undefined)
Activity [1]: 89.1%

IC50 (HCT-116): 2.76 µM
IC50 (MCF7): 4.95 µM
SMILES: O=c1[nH]c2c(c(=O)[nH]1)C(c1cccs1)c1[nH]c(=S)[nH]c(=S)c1O2 (centres undefined)

SMILES: Cc1nc2c3c(ncn2n1)OC1=C(C(=O)CC(C)(C)C1)C3c1ccccc1 (centres undefined)
Time (Homo sapiens): 60.1 s

IC50 (HCT-116): 6.38 µM
IC50 (MCF7): 3.12 µM
SMILES: CONC1=C(C#N)Oc2[nH]c(=O)[nH]c(=O)c2C1c1cccs1 (centres undefined)

SMILES: Brc1ccc2c3c(ccc2c1)Oc1ncn2nc(-c4ccccc4)nc2c1C3
diameter of the inhibition zone (DIZ) (Penicillium chrysogenum): 13 mm
diameter of the inhibition zone (DIZ) (Aspergillus ochraceus): 17 mm

IC50 (HCT-116): 7.25 µM
IC50 (MCF7): 0.87 µM
SMILES: Nc1ncnc2c1Oc1[nH]c(=O)[nH]c(=O)c1C2c1cccs1 (centres undefined)

SMILES: CC1(C)CC(=O)C2=C(C1)Oc1ncn3ncnc3c1C2c1ccccc1 (centres undefined)
Time (Homo sapiens): 59.4 s

SMILES: COc1ccc(C2c3c(nc[nH]c3=O)Oc3ccc4cc(Br)ccc4c32)cc1 (centres undefined)
diameter of the inhibition zone (DIZ) (Penicillium chrysogenum): 13 mm
diameter of the inhibition zone (DIZ) (Aspergillus ochraceus): 17 mm

SMILES: Cc1n[nH]c2c1C(c1ccncc1)c1c([nH]c(=O)[nH]c1=O)O2 (centres undefined)
Activity [1]: 59%

SMILES: COc1ccc(C2c3c(N)ncnc3Oc3ccc4cc(Br)ccc4c32)cc1 (centres undefined)
diameter of the inhibition zone (DIZ) (Penicillium chrysogenum): 13 mm
diameter of the inhibition zone (DIZ) (Aspergillus ochraceus): 17 mm

IC50 (HCT-116): 2.76 µM
IC50 (MCF7): 4.48 µM
SMILES: Cc1nc(O)c2c(n1)Oc1[nH]c(=O)[nH]c(=O)c1C2c1cccs1 (centres undefined)

SMILES: Cc1cccc(-n2cnc3c(c2=N)C(c2ccccc2)C2=C(CC(C)(C)CC2=O)O3)c1 (centres undefined)
Time (Homo sapiens): 53.7 s

SMILES: Brc1ccc2c3c(ccc2c1)Oc1ncn2ncnc2c1C3
diameter of the inhibition zone (DIZ) (Penicillium chrysogenum): 13 mm
diameter of the inhibition zone (DIZ) (Aspergillus ochraceus): 17 mm

MIC (Staphylococcus aureus [2]): 6.25 µg/mL (≈ 15.8 µM)
MIC (Escherichia coli): 6.25 µg/mL (≈ 15.8 µM)
MIC (Klebsiella pneumoniae): 6.25 µg/mL (≈ 15.8 µM)
MIC (Pseudomonas aeruginosa): 6.25 µg/mL (≈ 15.8 µM)
SMILES: CCO/C=N/C1=C(C#N)C(c2ccccc2OC)c2c(n(C)c(=O)n(C)c2=O)O1 (centres undefined)

MIC (Staphylococcus aureus [2]): 6.25 µg/mL (≈ 15.8 µM)
MIC (Escherichia coli): 6.25 µg/mL (≈ 15.8 µM)
MIC (Klebsiella pneumoniae): 6.25 µg/mL (≈ 15.8 µM)
MIC (Pseudomonas aeruginosa): 6.25 µg/mL (≈ 15.8 µM)
SMILES: CCO/C=N/C1=C(C#N)C(c2ccc(OC)cc2)c2c(n(C)c(=O)n(C)c2=O)O1 (centres undefined)

SMILES: COc1ccc(-n2cnc3c(c2=N)C(c2ccccc2)C2=C(CC(C)(C)CC2=O)O3)cc1 (centres undefined)
Time (Homo sapiens): 57 s

SMILES: COc1ccc(C2c3c(ncn(C)c3=N)Oc3ccc4cc(Br)ccc4c32)cc1 (centres undefined)
diameter of the inhibition zone (DIZ) (Penicillium chrysogenum): 13 mm
diameter of the inhibition zone (DIZ) (Aspergillus ochraceus): 17 mm

SMILES: CC1(C)CC(=O)C2=C(C1)Oc1ncn(-c3ccccc3)c(=N)c1C2c1ccccc1 (centres undefined)
Time (Homo sapiens): 57.1 s

IC50 (HCT-116): 2.76 µM
IC50 (MCF7): 1.28 µM
SMILES: O=c1[nH]c2c(c(=O)[nH]1)C(c1cccs1)c1[nH]c(=S)n(-c3ccccc3)c(=O)c1O2 (centres undefined)

SMILES: CC1(C)CC(=O)C2=C(C1)Oc1ncn(-c3cccc4ccccc34)c(=N)c1C2c1ccccc1 (centres undefined)
Time (Homo sapiens): 63.2 s

SMILES: CC1(C)CC(=O)C2=C(C1)Oc1ncn(-c3cccc(Cl)c3)c(=N)c1C2c1ccccc1 (centres undefined)
Time (Homo sapiens): 54.8 s

SMILES: Cc1n[nH]c2c1C(c1ccccc1O)c1c([nH]c(=O)[nH]c1=O)O2 (centres undefined)
diameter of the inhibition zone (DIZ) (Staphylococcus aureus [3]): 14 mm

SMILES: Cc1n[nH]c2c1C(c1cccc([N+](=O)[O-])c1)c1c([nH]c(=O)[nH]c1=O)O2 (centres undefined)
diameter of the inhibition zone (DIZ) (Staphylococcus aureus [3]): 12 mm
Activity [1]: 90.3%

SMILES: Cc1n[nH]c2c1C(/C=C/c1ccccc1)c1c([nH]c(=O)[nH]c1=O)O2 (centres undefined)
diameter of the inhibition zone (DIZ) (Staphylococcus aureus [3]): 16 mm
Activity [1]: 90.3%

SMILES: CC1(C)CC(=O)C2=C(C1)Oc1ncn3nc(CC#N)nc3c1C2c1ccccc1 (centres undefined)
Time (Homo sapiens): 63.4 s

MIC (Staphylococcus aureus [2]): 6.25 µg/mL (≈ 15.6 µM)
MIC (Escherichia coli): 6.25 µg/mL (≈ 15.6 µM)
MIC (Klebsiella pneumoniae): 6.25 µg/mL (≈ 15.6 µM)
MIC (Pseudomonas aeruginosa): 6.25 µg/mL (≈ 15.6 µM)
SMILES: CCO/C=N/C1=C(C#N)C(c2ccccc2Cl)c2c(n(C)c(=O)n(C)c2=O)O1 (centres undefined)

IC50 (Albumin): 20.1 µM
IC50 (Alpha-glucosidase): 5337 µM
IC50 [4]: 6.49 µM
SMILES: O=C(C1=C(c2ccccc2O)Oc2[nH]c(=S)[nH]c(=O)c2C1c1cc2ccccc2cc1O)N1CCCCC1 (centres undefined)

SMILES: CCc1ccc(-n2cnc3c(c2=N)C(c2ccccc2)C2=C(CC(C)(C)CC2=O)O3)cc1 (centres undefined)
Time (Homo sapiens): 61.8 s

IC50 (HCT-116): 2.76 µM
IC50 (MCF7): 2.65 µM
SMILES: Nc1nc(S)nc2c1Oc1[nH]c(=O)[nH]c(=O)c1C2c1cccs1 (centres undefined)
